Non-standard residues stand in square brackets, D forms with d. Residues, ends and D or L forms follow the SMILES beside them. Aze = O=C(O)[C@@H]1CCN1
How the values were obtained:
Type in all cases: cell-based
human CXCR3 = biological target: T1, human CXCR3 (Homo sapiens, UniProt P49682); assay: Calcium flux antagonism assay with human CXCL10; details: 300-19 cells with human CXCR3, read-out: IC50% (μM) ± SD, CXCR3 receptor
T1 construct: expressed in transfected cells; host or cells: mouse pre-B cell line 300-19
T1 sequence (P49682 1-368): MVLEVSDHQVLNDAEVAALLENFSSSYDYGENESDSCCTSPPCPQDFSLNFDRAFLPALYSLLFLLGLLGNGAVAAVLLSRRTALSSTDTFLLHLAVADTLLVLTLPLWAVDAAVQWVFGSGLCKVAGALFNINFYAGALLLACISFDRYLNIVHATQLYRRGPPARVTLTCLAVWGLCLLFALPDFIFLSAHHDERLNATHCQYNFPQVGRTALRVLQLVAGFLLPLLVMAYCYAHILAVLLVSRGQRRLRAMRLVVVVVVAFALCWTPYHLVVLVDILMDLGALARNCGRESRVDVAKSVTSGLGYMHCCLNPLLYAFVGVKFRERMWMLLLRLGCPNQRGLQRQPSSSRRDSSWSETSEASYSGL
Protocol: The mouse pre-B cell line 300-19 was stably transfected with the cDNA encoding the human UTR2 receptor (GenBank Acc#NM_018949), and expression was confirmed with a positive calcium signal in response to human urotensin (Sigma Aldrich). Increases in intracellular calcium were monitored using a Flexstation 384 (Molecular Devices, Sunnyvale, Calif.). The cells were batch loaded with the Calcium 3 Assay kit (Molecular Devices) in assay buffer (Hanks Balanced salt solution, HBSS, 20 mM HEPES, pH 7.4, 0.1% BSA) for 1 h at room temperature and labeled cells were dispensed into either black 96 well or 384 well assay plates (Greiner). Calcium mobilization induced by urotensin or compounds was measured in the Flexstation 384 (excitation, […]) for 70 seconds. Agonist activity was determined by direct addition of ligand or peptides, while antagonists were identified by pre-incubation of compounds with cells prior to urotensin addition. A dose response curve (compound concentration versus % maximum response for urotensin) was determined for each active agonist and antagonist and was fitted to a four parameter logistic equation using SoftmaxPro 4.6 (Molecular Devices), from which EC50% and IC50% values were calculated. […]

CXCR1 = biological target: T2, CXCR1 (Homo sapiens, UniProt P25024); assay: Selectivity calcium flux assay, chemokine receptor panel; details: at 10 μM
T2 sequence (P25024 1-350): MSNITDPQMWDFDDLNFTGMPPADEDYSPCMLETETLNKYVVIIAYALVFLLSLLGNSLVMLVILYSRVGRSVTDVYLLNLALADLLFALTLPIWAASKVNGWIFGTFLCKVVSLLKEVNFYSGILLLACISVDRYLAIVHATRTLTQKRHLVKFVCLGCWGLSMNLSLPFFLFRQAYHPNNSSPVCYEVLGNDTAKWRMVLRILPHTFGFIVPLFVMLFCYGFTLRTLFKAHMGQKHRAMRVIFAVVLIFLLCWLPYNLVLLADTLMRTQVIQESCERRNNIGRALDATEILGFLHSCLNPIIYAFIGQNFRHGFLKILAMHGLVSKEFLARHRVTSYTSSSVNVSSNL
Protocol: (§1) Selectivity was measured using the calcium flux assay on a panel of human chemokine receptor bearing cell lines (CCR1, CCR2, CCR3, CCR4, CCR5, CCR6, CCR7, CCR8, CCR9, CCR10, CXCR1, CXCR2, CXCR2, CXCR4, CXCR6 and CXCCR1) using the same method as above

CCR6 = biological target: T3, CCR6 (Homo sapiens, UniProt P51684); assay: as above; details: at 10 μM
T3 sequence (P51684 1-374): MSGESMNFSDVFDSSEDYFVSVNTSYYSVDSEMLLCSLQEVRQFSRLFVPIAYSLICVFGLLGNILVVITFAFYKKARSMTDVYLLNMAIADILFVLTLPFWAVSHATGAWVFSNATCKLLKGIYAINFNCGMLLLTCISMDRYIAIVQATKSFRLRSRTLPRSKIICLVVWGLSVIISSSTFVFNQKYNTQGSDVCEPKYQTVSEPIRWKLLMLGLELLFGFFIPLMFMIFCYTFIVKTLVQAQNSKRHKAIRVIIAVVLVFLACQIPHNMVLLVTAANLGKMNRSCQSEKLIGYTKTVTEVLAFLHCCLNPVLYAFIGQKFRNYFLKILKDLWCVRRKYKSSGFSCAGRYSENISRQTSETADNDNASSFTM
Protocol: as §1

CXCCR1 = biological target: T4, CXCCR1 (Homo sapiens, UniProt P49238); assay: as above; details: at 10 μM
T4 sequence (P49238 1-355): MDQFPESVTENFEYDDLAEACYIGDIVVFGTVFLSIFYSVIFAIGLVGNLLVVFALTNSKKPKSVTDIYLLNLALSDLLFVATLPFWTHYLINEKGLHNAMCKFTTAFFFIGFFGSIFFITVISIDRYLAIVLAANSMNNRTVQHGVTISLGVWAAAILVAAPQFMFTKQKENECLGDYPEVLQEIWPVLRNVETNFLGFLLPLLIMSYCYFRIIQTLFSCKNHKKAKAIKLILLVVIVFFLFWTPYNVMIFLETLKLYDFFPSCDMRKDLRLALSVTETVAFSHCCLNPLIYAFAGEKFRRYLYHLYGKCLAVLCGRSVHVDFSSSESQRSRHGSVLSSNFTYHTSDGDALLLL
Protocol: as §1

CCR7 = biological target: T5, CCR7 (Homo sapiens, UniProt P32248); assay: as above; details: at 10 μM
T5 sequence (P32248 25-378): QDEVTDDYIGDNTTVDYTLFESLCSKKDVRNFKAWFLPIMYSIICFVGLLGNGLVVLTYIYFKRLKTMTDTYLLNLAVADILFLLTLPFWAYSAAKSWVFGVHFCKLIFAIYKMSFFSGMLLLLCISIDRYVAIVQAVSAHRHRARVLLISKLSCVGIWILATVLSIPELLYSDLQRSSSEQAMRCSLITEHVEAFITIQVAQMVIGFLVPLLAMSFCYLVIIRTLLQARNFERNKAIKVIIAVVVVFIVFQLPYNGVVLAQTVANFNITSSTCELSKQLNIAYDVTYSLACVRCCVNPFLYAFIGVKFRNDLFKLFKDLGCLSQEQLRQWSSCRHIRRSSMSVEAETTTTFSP
Protocol: as §1

With `N=C(N)NCCC[C@@H]1NC(=O)[C@H](Cc2c[nH]c3ccccc23)NC(=O)[C@H](Cc2ccc(O)cc2)NC(=O)[C@@H]2CCN2C(=O)[C@H]2CCCN2C(=O)CNC1=O` [Example 15] (cyclo(YWRG[dP][Aze])) the IC50 (human CXCR3) was 8.6 µM, the “selectivity against CXCR1” value (CXCR1) was “highly selective” and the “selectivity against CCR6” value (CCR6) was “highly selective”. For the same compound, the “selectivity against CXCCR1” value (CXCCR1) was “highly selective” and the “selectivity against CCR7” value (CCR7) was “highly selective”.

`C[C@@H]1NC(=O)[C@H](CCCNC(=N)N)NC(=O)[C@H](Cc2c[nH]c3ccccc23)NC(=O)[C@H](Cc2ccc(O)cc2)NC(=O)[C@@H]2CCN2C(=O)[C@H]2CCCN2C1=O` [Example 16] (cyclo(YWRA[dP][Aze])) was tested, and the IC50 (human CXCR3) was 8.1 µM, the “selectivity against CXCR1” value (CXCR1) was “highly selective” and the “selectivity against CCR6” value (CCR6) was “highly selective”. For the same compound, the “selectivity against CXCCR1” value (CXCCR1) was “highly selective” and the “selectivity against CCR7” value (CCR7) was “highly selective”.

Reference: patent publication US10000535B2, “Template-fixed peptidomimetics” (POLYPHOR LTD., priority 2007, dated 2018)
